This note sets out measurements from ChEMBL document CHEMBL1143080, “Discovery of a novel series of nonsteroidal androgen receptor modulators: 5- or 6-oxachrysen-2-ones” (Bioorg Med Chem Lett, 2008).

Assay [1] deals with T1, Androgen receptor (Homo sapiens, UniProt P10275).
T1 sequence (P10275 whole entry): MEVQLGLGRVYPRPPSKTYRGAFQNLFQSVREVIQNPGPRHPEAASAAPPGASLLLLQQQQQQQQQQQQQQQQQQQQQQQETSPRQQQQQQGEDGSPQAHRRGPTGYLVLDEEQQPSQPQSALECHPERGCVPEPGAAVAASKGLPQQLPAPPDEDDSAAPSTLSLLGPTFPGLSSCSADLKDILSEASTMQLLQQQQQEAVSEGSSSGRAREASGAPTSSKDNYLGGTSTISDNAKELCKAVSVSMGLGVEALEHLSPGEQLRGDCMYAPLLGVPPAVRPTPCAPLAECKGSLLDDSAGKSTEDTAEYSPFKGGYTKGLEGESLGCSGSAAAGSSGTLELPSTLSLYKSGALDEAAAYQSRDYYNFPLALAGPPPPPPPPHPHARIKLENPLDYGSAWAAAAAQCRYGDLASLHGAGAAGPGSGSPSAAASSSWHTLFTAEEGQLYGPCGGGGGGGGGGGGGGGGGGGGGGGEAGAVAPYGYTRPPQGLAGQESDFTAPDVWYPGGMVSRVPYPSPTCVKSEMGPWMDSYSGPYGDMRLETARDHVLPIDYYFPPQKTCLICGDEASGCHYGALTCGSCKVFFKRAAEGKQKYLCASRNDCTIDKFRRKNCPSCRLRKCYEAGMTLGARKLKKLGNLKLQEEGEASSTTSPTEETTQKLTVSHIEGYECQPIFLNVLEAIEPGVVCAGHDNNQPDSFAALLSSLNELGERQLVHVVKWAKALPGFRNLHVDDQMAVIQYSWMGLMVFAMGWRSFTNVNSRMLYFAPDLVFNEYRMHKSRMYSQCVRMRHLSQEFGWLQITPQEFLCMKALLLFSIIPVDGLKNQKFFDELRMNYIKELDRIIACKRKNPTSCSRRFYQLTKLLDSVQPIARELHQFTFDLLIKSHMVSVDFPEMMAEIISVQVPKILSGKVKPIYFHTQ
Description: Agonist activity at human androgen receptor african green monkey CV1 cells by cotransfection assay

Assay [2] has as its target T1, Androgen receptor. This is another data set of the same source.
Description: Antagonist activity at human androgen receptor african green monkey CV1 cells by cotransfection assay
The target in assay [3] is T1, Androgen receptor. This is another data set of the same source.
Description: Binding affinity to human androgen receptor expressed in monkey COS7 cells by whole cell binding assay
For assay [4], the target named is T1, Androgen receptor. This is another data set of the same source.
Description: Activity at androgen receptor in human Saos2 cells assessed as IL6 repression

Consider `COc1cccc2c1-c1ccc3[nH]c(=O)cc(C)c3c1CO2`, for which the EC50 on Androgen receptor [1] is 50 nM. Further, the IC50 on Androgen receptor [2] is more than 10000 nM; against Androgen receptor [4], 12 nM. The affinity on Androgen receptor [3], expressed as Ki, was 59 nM.
Regarding `COc1c(O)ccc2oc(=O)c3c(ccc4[nH]c(=O)cc(C)c43)c12`, at Androgen receptor [1], the half-maximal effective concentration (EC50) turned out to be 21 nM. For the same compound, the values for the IC50 against Androgen receptor [2] and against Androgen receptor [4] were more than 10000 nM and 0.2 nM, respectively. The compound further returned a Ki on Androgen receptor [3] of 4 nM.
`COc1cccc2c(=O)oc3c(ccc4[nH]c(=O)cc(C(F)(F)F)c43)c12` gave an EC50 on Androgen receptor [1] of 90 nM. In addition, the IC50 is more than 10000 nM against Androgen receptor [2] and 89 nM on Androgen receptor [4]. Moreover, the affinity on Androgen receptor [3] corresponds to a Ki of 50 nM.
The compound `C=CCC1Oc2cccc(OC)c2-c2ccc3[nH]c(=O)cc(C)c3c21` (stereo not given) came in with an EC50 at Androgen receptor [1] of more than 10000 nM. The same compound displayed an IC50 on Androgen receptor [2] of 144 nM. The compound further yielded a Ki at Androgen receptor [3] of 1590 nM.
Compound `CCOc1ccc2oc(=O)c3c(ccc4[nH]c(=O)cc(C)c43)c2c1OC` returned an EC50 at Androgen receptor [1] of 18 nM. The IC50 against Androgen receptor [2] is more than 10000 nM; at Androgen receptor [4], 10 nM. In addition, affinity at Androgen receptor [3] was put at a Ki of 62 nM.
`Cc1cc(=O)[nH]c2ccc3c4c(C(=O)OC(C)(C)C)cccc4oc(=O)c3c12` returned an EC50 on Androgen receptor [1] of 1.1 nM. Moreover, the results for the IC50 against Androgen receptor [2] and on Androgen receptor [4] were more than 10000 nM and 1.9 nM, respectively. The affinity on Androgen receptor [3], expressed as Ki, was 8.7 nM.
Compound `Cc1cc(=O)[nH]c2ccc3c4cc(F)ccc4oc(=O)c3c12` displayed an EC50 at Androgen receptor [1] of 240 nM. The figures for the concentration for half-maximal inhibition (IC50) on Androgen receptor [2] and against Androgen receptor [4] were 27 nM and 101 nM, respectively. Further, the Ki at Androgen receptor [3] worked out at 1000 nM.
`COc1cccc2c1-c1ccc3[nH]c(=O)cc(C)c3c1C(OC)O2` (stereo not given) showed an EC50 at Androgen receptor [1] of 184 nM. Further, the IC50 against Androgen receptor [2] was found to be 19 nM; against Androgen receptor [4], 112 nM. Besides, the affinity on Androgen receptor [3], expressed as Ki, was 2350 nM.
Compound `COc1c(O)ccc2c1-c1ccc3[nH]c(=O)cc(C)c3c1CO2` gave an EC50 on Androgen receptor [1] of 306 nM. Moreover, the IC50 against Androgen receptor [2] was 19 nM; on Androgen receptor [4] it was 1.2 nM. In addition, the Ki at Androgen receptor [3] is 5 nM.
For `COc1cccc2c1-c1ccc3[nH]c(=O)cc(C)c3c1C(C)O2` (stereo not given), on Androgen receptor [1], the EC50 is more than 10000 nM. Also, the IC50 against Androgen receptor [2] is 62 nM. The Ki on Androgen receptor [3] was determined as 250 nM.
`COc1cccc2c1-c1ccc3[nH]c(=O)cc(C(F)(F)F)c3c1CO2` had an EC50 on Androgen receptor [1] of 20 nM. The values for the IC50 at Androgen receptor [2] and against Androgen receptor [4] were more than 10000 nM and 14 nM, respectively. On Androgen receptor [3], this compound registered a Ki of 11 nM.
For `O=c1cc(C(F)(F)F)c2c3c(ccc2[nH]1)-c1c(O)cccc1OC3`, it took 16 nM to reach a half-maximal effect on Androgen receptor [1] (EC50). The figures for the IC50 against Androgen receptor [2] and at Androgen receptor [4] were more than 10000 nM and 1.1 nM, respectively. At Androgen receptor [3], this compound gave an inhibitory constant (Ki) of 1.3 nM.
On to `COc1c(C(=O)OC(F)(F)F)ccc2oc(=O)c3c(ccc4[nH]c(=O)cc(C)c43)c12`, for which, at Androgen receptor [1], the midpoint of the response, the EC50, lay at 43 nM. Further, the results for the IC50 against Androgen receptor [2] and on Androgen receptor [4] were more than 10000 nM and 0.2 nM, respectively. On Androgen receptor [3], this compound came in with a Ki of 10 nM.
Turning to `COc1c(OC(C)C)ccc2oc(=O)c3c(ccc4[nH]c(=O)cc(C)c43)c12`, it took 23 nM to reach a half-maximal effect on Androgen receptor [1] (EC50). Further, the IC50 against Androgen receptor [2] was 20 nM; against Androgen receptor [4], 2.8 nM. Affinity on Androgen receptor [3] was put at a Ki of 21 nM.
`COc1cccc2c1-c1ccc3[nH]c(=O)cc(C(F)(F)F)c3c1OC2` displayed an EC50 on Androgen receptor [1] of more than 10000 nM. Also, the IC50 amounted to 78 nM against Androgen receptor [2] and 477 nM against Androgen receptor [4]. For the same compound, the Ki on Androgen receptor [3] was determined as 27 nM.
The matching figures for `COc1cccc2oc(=O)c3c(ccc4[nH]c(=O)cc(C)c43)c12`: 11 nM, more than 10000 nM, 21 nM and 28 nM.
In turn, `COc1cccc2c1-c1ccc3[nH]c(=O)cc(C)c3c1C(O)O2` (stereo not given) returned an EC50 at Androgen receptor [1] of 208 nM. Further, the IC50 was more than 10000 nM against Androgen receptor [2] and 50 nM against Androgen receptor [4]. The same compound showed a Ki at Androgen receptor [3] of 1300 nM.
Compound `COc1ccc2oc(=O)c3c(ccc4[nH]c(=O)cc(C)c43)c2c1` had an EC50 at Androgen receptor [1] of more than 10000 nM. In addition, the IC50 came out at 48 nM at Androgen receptor [2] and 0.8 nM against Androgen receptor [4]. Further, on Androgen receptor [3], the Ki came to 610 nM.

What is called EC50 is the concentration giving half of the maximal effect. Low readings indicate higher potency in that assay, high ones lower potency in that assay. Broadly, the IC50 is the concentration at which inhibition is half-maximal. As usually defined, the Ki is the equilibrium dissociation constant of an inhibitor or competing ligand from its target. A high value points to a looser hold on the target.
